As a reminder, the IC50 is the point on the concentration scale where inhibition reaches its midpoint.

Experimental findings from US9249106B2, “Substituted hydrazide compounds and use thereof” (Shenyang J & Health Pharmaceutical Co., Ltd., priority 2009, dated 2016) are described below.

≈ marks a conversion by molar mass, not a printed value. Counter-ions that a name gives are not always drawn.

Common to all, as to test: Antitumor activity assay in vitro (MTT)
Holding throughout (format): cell-based

Experiment [1] deals with Bel7402 (human liver cancer cell). The note with it: 72 hours, Bliss method; for IC50 Bel7402: Bel7402 cells; for IC50: Homo sapiens, Bel-7402, Bel7402 cells. As for the experimental part:
(§1) (1) Five cell strains, SK-N-SH (human neuroblastoma cell), NCI-H226 (human lung cancer cell), Bel7402 (human liver cancer cell), A549 (human non-small cell lung cancer), and MCF7 (human breast cancer cell), were thawed and stably passaged for two or three times, respectively, and then digested with trypsin solution (0.25%) so as to be removed from the bottom of culture flasks. The digested cell solution was poured into a centrifuge tube, to which culture media was added to stop the digestion. The centrifuge tube was centrifuged at 1300 r/min for 3 min, the supernatant was removed gently and then 5 mL culture media was added. The cells were pipetted and mixed homogeneously. 10 μL cell suspension was taken into a cell counting plate for counting, wherein the cell concentration was adjusted to 10^4 cells/well. Each well of the 96-well plates, except for A1 well as blank control, contained 100 μL cell suspension. The 96-well plates were placed in an incubator and cultivated for 24 hours.
(§2) (2) 50 μL dimethyl sulfoxide was used to dissolve the test samples, and then a suitable amount of culture media was added so as to reach a final concentration of 2 mg/mL. Then the samples were diluted to 100, 20, 4, 0.8, 0.16 μg/mL in a 24-well plate, respectively. […] The 96-well plates were placed in an incubator and cultivated for 72 hours.
(§3) (3) The culture media containing the compounds in the 96-well plates was discarded, and the cells were washed with phosphate buffered solution (PBS) twice. Each well was added with 100 μL MTT (tetrazole) (0.5 mg/mL), and then placed in an incubator to incubate for 4 hours, after which MTT solution was discarded and 100 μL dimethyl sulfoxide was added thereto. The reaction product of survival cells with MTT, i.e. formazan, was dissolved completely by oscillation on a magnetic oscillator, then placed into a microplate reader to measure the results, and the IC50 values of compounds could be deduced by Bliss method. The control, N′-[(2-hydroxy-3-allyl)phenylmethylene]-2-(4-benzylpiperazin-1-yl)acethydrazide(PAC-1), was produced according to the method of patent WO2008/134474 A2.

Experiment [2] relates to SK-N-SH (human neuroblastoma cell). The note with it: SK-N-SH cells, 72 hours, Bliss method; for IC50: Homo sapiens. The protocol:
as §1, §2, §3

In experiment [3] the test system is NCI-H226 (human lung cancer cell). The note with it: NCI-H226 cells, 72 hours, Bliss method; for IC50: Homo sapiens, read-out: IC50 NCI-226. As for the experimental part:
as §1, §2, §3

For experiment [4], the system named is MCF7 (human breast cancer cell). The note with it: MCF7 cells, 72 hours, Bliss method; for IC50: Homo sapiens. The protocol:
as §1, §2, §3

Experiment [5] deals with A549 (human non-small cell lung cancer). The note with it: A549 cells, 72 hours, Bliss method; for IC50: Homo sapiens. As for the experimental part: as §1, §2, §3

`CC(C)(C)c1cc(C=NNC(=O)c2ccc3nc[nH]c3c2)c(O)c(C(C)(C)C)c1.Cl` [Example 1, N′-[(2-hydroxy-3,5-di-tert-butyl)phenylmethylene]-1H-benzo[d]imidazole-6-formhydrazide hydrochloride]: in experiment [1], the “IC50 Bel7402” value came out at 0.56 µg/mL. In experiment [2], the “IC50 SK” value is 0.08 µg/mL. In experiment [3], the “IC50 NCI-226” value is 0.07 µg/mL. In experiment [4], the “IC50 MCF7” value is 0.8 µg/mL. Besides, the “IC50 A549” value in experiment [5] came out at 0.4 µg/mL.
With `Cc1ccc(C=NNC(=O)c2ccc3nc[nH]c3c2)c(O)c1.Cl` [Example 2, N′-[(2-hydroxy-4-methyl)phenylmethylene]-1H-benzo[d]imidazole-6-formhydrazide hydrochloride], the “IC50 Bel7402” value in experiment [1] is 2.4 µg/mL. The “IC50 SK” value in experiment [2] was 2.1 µg/mL. Further, the “IC50 NCI-226” value in experiment [3] was 1.0 µg/mL. Besides, the “IC50 MCF7” value in experiment [4] came to 1.8 µg/mL. Besides, in experiment [5], the “IC50 A549” value came to 1.9 µg/mL.
`O=C(NN=Cc1c(O)ccc2ccccc12)c1ccc2nc[nH]c2c1` [Example 3, N′-[(2-hydroxy-1-naphthyl)methylene]-1H-benzo[d]imidazole-6-formhydrazide hydrochloride]: the IC50 in experiment [1] stood at 2.5 µg/mL; in experiment [2], 3 µg/mL; in experiment [3] it was 1.1 µg/mL; in experiment [4] it was 1.2 µg/mL; in experiment [5] it was 0.7 µg/mL.
On to `C=CCc1cccc(C=NNC(=O)c2ccc3nc[nH]c3c2)c1O.Cl` [Example 4, N′-[(2-hydroxy-3-allyl)phenylmethylene]-1H-benzo[d]imidazole-6-formhydrazide hydrochloride], for which the “IC50 Bel7402” value in experiment [1] came to 1.3 µg/mL. Also, the “IC50 SK” value in experiment [2] is 1.3 µg/mL. Besides, the “IC50 NCI-226” value in experiment [3] was determined as 0.2 µg/mL. The “IC50 MCF7” value in experiment [4] is 3.3 µg/mL. Also, in experiment [5], the “IC50 A549” value came out at 2 µg/mL.
On to `Cc1cc(C)c(C=NNC(=O)c2ccc3nc[nH]c3c2)c(O)c1C.Cl` [Example 6, N′-[(2-hydroxy-3,4,6-trimethyl)phenylmethylene]-1H-benzo[d]imidazole-6-formhydrazide hydrochloride], for which the “IC50 Bel7402” value in experiment [1] was determined as 2.6 µg/mL. Besides, in experiment [2], the “IC50 SK” value turned out to be 1.8 µg/mL. Moreover, the “IC50 NCI-226” value in experiment [3] worked out at 1.7 µg/mL. The “IC50 MCF7” value in experiment [4] came to 3.2 µg/mL. Also, the “IC50 A549” value in experiment [5] came to 3.1 µg/mL.
The corresponding values for `Cc1ccc(O)c(C=NNC(=O)c2ccc3nc[nH]c3c2)c1.Cl` [Example 7, N′-[(2-hydroxy-5-methyl)phenylmethylene]-1H-benzo[d]imidazole-6-formhydrazide hydrochloride] are 5.4 µg/mL, 3.2 µg/mL, 2.7 µg/mL, 1.9 µg/mL and 12 µg/mL.
Turning to `Cc1ccc(C(C)C)c(C=NNC(=O)c2ccc3nc[nH]c3c2)c1O.Cl` [Example 8, N′-[(2-hydroxy-3-methyl-6-isopropyl)phenylmethylene]-1H-benzo[d]imidazole-6-formhydrazide hydrochloride], the “IC50 Bel7402” value in experiment [1] is 2.4 µg/mL. In experiment [2], the “IC50 SK” value was 3.0 µg/mL. Also, the “IC50 NCI-226” value in experiment [3] was 1.0 µg/mL. The “IC50 MCF7” value in experiment [4] stood at 1.7 µg/mL. Besides, the “IC50 A549” value in experiment [5] stood at 1.5 µg/mL.
Take `Cl.O=C(NN=Cc1ccc(OCc2ccc(Cl)cc2)cc1O)c1ccc2nc[nH]c2c1` [Example 9, N′-{[2-hydroxy-4-(4-chlorobenzyloxy)]phenylmethylene}-1H-benzo[d]imidazole-6-formhydrazide hydrochloride]: the “IC50 Bel7402” value in experiment [1] is 1.5 µg/mL. Further, the “IC50 SK” value in experiment [2] amounted to 0.2 µg/mL. In addition, the “IC50 NCI-226” value in experiment [3] stood at 0.5 µg/mL. Moreover, the “IC50 MCF7” value in experiment [4] turned out to be 0.6 µg/mL. Also, in experiment [5], the “IC50 A549” value turned out to be 0.9 µg/mL.
For the compound `O=C(NN=Cc1ccccc1O)c1ccc2nc[nH]c2c1` [Example 11, N′-[(2-hydroxy)phenylmethylene]-1H-benzo[d]imidazole-6-formhydrazide hydrochloride], the concentration for half-maximal inhibition (IC50) is 3.2 µg/mL in experiment [1]; 2.7 µg/mL in experiment [2]; 2.3 µg/mL in experiment [3]; 2.3 µg/mL in experiment [4]; 10 µg/mL in experiment [5].
On to `Cl.O=C(NN=Cc1cc(OCc2ccc(Cl)cc2)ccc1O)c1ccc2nc[nH]c2c1` [Example 12, N′-{[2-hydroxy-5-(4-chlorobenzyloxy)]phenylmethylene}-1H-benzo[d]imidazole-6-formhydrazide hydrochloride], for which the “IC50 Bel7402” value in experiment [1] worked out at 3.3 µg/mL. For the same compound, in experiment [2], the “IC50 SK” value worked out at 3.0 µg/mL. Besides, the “IC50 NCI-226” value in experiment [3] was 1.7 µg/mL. Also, the “IC50 MCF7” value in experiment [4] is 2.1 µg/mL. In addition, the “IC50 A549” value in experiment [5] amounted to 5.8 µg/mL.
Turning to `Cl.O=C(NN=Cc1ccc(OCc2ccccc2)cc1O)c1ccc2nc[nH]c2c1` [Example 13, N′-[(2-hydroxy-4-benzyloxy)phenylmethylene]-1H-benzo[d]imidazole-6-formhydrazide hydrochloride], the “IC50 Bel7402” value in experiment [1] came to 3.7 µg/mL. Moreover, the “IC50 SK” value in experiment [2] was determined as 1.1 µg/mL. Also, the “IC50 NCI-226” value in experiment [3] came out at 2.4 µg/mL. Also, the “IC50 MCF7” value in experiment [4] came out at 1.8 µg/mL. Moreover, the “IC50 A549” value in experiment [5] came out at 2.6 µg/mL.
With `C=CCN1C(=O)NC(=O)C(C=NNC(=O)c2ccc3nc[nH]c3c2)C1=O` (stereo not shown) [Example 14, N′-[(1-allyl-2,4,6-pyrimidinetrione-5-yl)methylene]-1H-benzo[d]imidazole-6-formhydrazide], the concentration for half-maximal inhibition (IC50) in experiment [1] turned out to be 2.2 µg/mL (≈ 6.21 µM); in experiment [2], 0.9 µg/mL (≈ 2.54 µM); in experiment [3], 2.5 µg/mL (≈ 7.06 µM); in experiment [4] it was 1.7 µg/mL (≈ 4.8 µM); in experiment [5], 10 µg/mL (≈ 28.2 µM).
Take `Cl.O=C(NN=Cc1cc(OCc2cccc(Cl)c2)ccc1O)c1ccc2nc[nH]c2c1` [Example 18, N′-{[2-hydroxy-5-(3-chlorobenzyloxy)]phenylmethylene}-1H-benzo[d]imidazole-6-formhydrazide hydrochloride]: the “IC50 Bel7402” value in experiment [1] turned out to be 3.1 µg/mL. For the same compound, in experiment [2], the “IC50 SK” value amounted to 1.7 µg/mL. In addition, the “IC50 NCI-226” value in experiment [3] came to 2.3 µg/mL. In experiment [4], the “IC50 MCF7” value amounted to 2.7 µg/mL. For the same compound, in experiment [5], the “IC50 A549” value was 1.5 µg/mL.
Consider `Cl.O=C(Cc1nc2ccccc2[nH]1)NN=Cc1cc(C(=O)CCl)ccc1O` [Example 22, N′-[(2-hydroxy-5-chloroacetyl)phenylmethylene]-1H-benzo[d]imidazole-2-acethydrazide hydrochloride], for which the “IC50 Bel7402” value in experiment [1] stood at 0.5 µg/mL. Also, the “IC50 SK” value in experiment [2] was 1.0 µg/mL. Besides, in experiment [3], the “IC50 NCI-226” value was 0.8 µg/mL. In addition, the “IC50 MCF7” value in experiment [4] amounted to 3.4 µg/mL. The “IC50 A549” value in experiment [5] was determined as 1.7 µg/mL.
Turning to `Cc1cc(C)c(C=NNC(=O)Cc2nc3ccccc3[nH]2)c(O)c1C.Cl` [Example 23, N′-[(2-hydroxy-3,4,6-trimethyl)phenylmethylene]-1H-benzo[d]imidazole-2-acethydrazide hydrochloride], in experiment [1], the “IC50 Bel7402” value came out at 3.1 µg/mL. Further, the “IC50 SK” value in experiment [2] came to 0.3 µg/mL. For the same compound, the “IC50 NCI-226” value in experiment [3] amounted to 0.3 µg/mL. Besides, in experiment [4], the “IC50 MCF7” value turned out to be 2.6 µg/mL. The “IC50 A549” value in experiment [5] stood at 2.4 µg/mL.
For `Cl.O=C(Cc1nc2ccccc2[nH]1)NN=Cc1cc(OCc2ccccc2)ccc1O` [Example 25, N′-[(2-hydroxy-5-benzyloxy)phenylmethylene]-1H-benzo[d]imidazole-2-acethydrazide hydrochloride], the “IC50 Bel7402” value in experiment [1] stood at 3.7 µg/mL. Also, the “IC50 SK” value in experiment [2] turned out to be 0.4 µg/mL. Moreover, in experiment [3], the “IC50 NCI-226” value was found to be 1.6 µg/mL. In experiment [4], the “IC50 MCF7” value was found to be 1.0 µg/mL. The “IC50 A549” value in experiment [5] turned out to be 4.1 µg/mL.
“N′-{[2-hydroxy-3-(1-methyl-2-allyl)]phenylmethylene}-1H-benzo[d]imidazole-6-formhydrazide hydrochloride [Example 10]”: the “IC50 Bel7402” value in experiment [1] was found to be 3.3 µg/mL. Besides, the “IC50 SK” value in experiment [2] worked out at 1.1 µg/mL. Besides, in experiment [3], the “IC50 NCI-226” value came to 1.0 µg/mL. Besides, the “IC50 MCF7” value in experiment [4] stood at 3.8 µg/mL. The “IC50 A549” value in experiment [5] was 1.2 µg/mL.
